The results in this text go back to ChEMBL document CHEMBL1151982, “Natural products as tools for neuroscience: discovery and development of novel agents to treat drug abuse” (J Nat Prod, 2009).

Assay type in all cases: functional
Assay [1] addresses T1, Kappa-type opioid receptor (Homo sapiens, UniProt P41145). The experiment in a line: Agonist activity at kappa opioid receptor by [35S]GTPgammaS binding assay.
For assay [2], the target named is T1, Kappa-type opioid receptor. Kind of assay: Agonist activity at kappa opioid receptor by [35S]GTPgammaS binding assay relative to (-)-U50,488H.
Assay [3] addresses T1, Kappa-type opioid receptor. Kind of assay: Antagonist activity at kappa opioid receptor by [35S]GTPgammaS binding assay.

T1 sequence (P41145 whole entry): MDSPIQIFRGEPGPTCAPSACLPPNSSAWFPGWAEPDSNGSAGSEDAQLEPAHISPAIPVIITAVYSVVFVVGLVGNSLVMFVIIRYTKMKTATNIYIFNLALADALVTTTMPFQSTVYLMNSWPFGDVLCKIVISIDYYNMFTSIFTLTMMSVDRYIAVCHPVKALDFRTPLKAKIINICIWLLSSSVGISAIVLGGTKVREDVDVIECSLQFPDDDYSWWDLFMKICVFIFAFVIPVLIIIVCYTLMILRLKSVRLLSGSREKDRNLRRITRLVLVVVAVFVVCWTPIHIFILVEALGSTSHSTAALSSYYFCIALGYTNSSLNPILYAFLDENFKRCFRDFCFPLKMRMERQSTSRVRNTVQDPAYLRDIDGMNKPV

The compound `COC(=O)[C@@H]1C[C@H](OC(C)=O)C(=O)[C@H]2[C@@]1(C)CC[C@H]1C(=O)O[C@H]([C@]3(O)[C@H](OC)O[C@H](OC)[C@H]3O)C[C@]21C` [SALVINICIN A] gave an EC50 in assay [1] of 4.1 µM. Moreover, the Emax in assay [2] worked out at 80%.

Compound `COC(=O)[C@@H]1C[C@H](OC(C)=O)C(=O)[C@@H]2[C@@]3(C)C[C@@H]([C@]4(O)[C@@H](OC)O[C@@H](OC)[C@H]4O)CC(=O)[C@@H]3CC[C@]21C` [SALVINICIN B] showed a Ki in assay [3] of over 1.9 µM.
